Data reported in ChEMBL document CHEMBL1133765, “QSAR model for drug human oral bioavailability” (J Med Chem, 2000).

Legend:
[1] = physchem; settings: octanol/water, pH 6.5
[2] = clinical; settings: human, in vivo, po
[3] = octanol/water
[4] = physchem
[5] = octanol/water; remark: listed apart in the source
[6] = physchem; settings: octanol/water

Compound	logD [1]	bioavailability ([2]; F) [%]	delta logD [3]	pKa [4]	bioavailability [2] [%]	delta logD [5]	logD ([6]; pH 6.5, logD)	logD ([6]; pH 6.5)
CCCN(CCC)S(=O)(=O)c1ccc(C(=O)O)cc1 [PROBENECID]	0.11	≥ 80	0.9	3.4				
CN1C(=O)NC(=O)C(C)(C2=CCCCC2)C1=O (stereo not drawn) [HEXOBARBITAL]	1.48		0.04	8.3	≥ 80			
CCN(CC)C(=O)N[C@H]1C[C@@H]2c3cccc4[nH]cc(c34)C[C@H]2N(C)C1 [TERGURIDE]	2.05		-0.32	6.8	≤ 20			
CC(C)NCC(O)COc1ccc(COCCOC(C)C)cc1 (stereo not drawn) [BISOPROLOL]	-0.83		-0.89	9.2				
CCCC(CCC)C(=O)O [VALPROIC ACID]	1.04	≥ 80	0.89					
O=[N+]([O-])C1O[C@H]2[C@H](OC[C@H]2O)[C@H]1O (stereo partly drawn)	-0.15	≥ 80	0					
Cc1ccc(C)c(OCCCC(C)(C)C(=O)O)c1 [GEMFIBROZIL]	1.47	≥ 80	0.89	4.8				
Nc1cc(-c2ccncc2)c[nH]c1=O [INAMRINONE]	-0.72	≥ 80	-0.02	5.2				
Nc1ccc(S(=O)(=O)Nc2ncccn2)cc1 [SULFADIAZINE]	-0.39	≥ 80	0.65					
C[C@]12C=CC(=O)C=C1CC[C@@H]1[C@@H]2[C@@H](O)C[C@@]2(C)[C@H]1CC[C@]2(O)C(=O)CO [PREDNISOLONE]						0		
COCCc1ccc(OCC(O)CNC(C)C)cc1 (stereo not drawn) [METOPROLOL]		49					-1.32	
O=C(O)CCc1nc(-c2ccccc2)c(-c2ccccc2)o1 [OXAPROZIN]	3.41	≥ 80	0.84	5.8				
Cc1ccnc2c1NC(=O)c1cccnc1N2C1CC1 [NEVIRAPINE]	1.92				≥ 80			
Oc1ncnc2[nH]ncc12 [ALLOPURINOL]	-0.55		0		≥ 80			
CC[C@H](C)C(=O)O[C@H]1C[C@@H](C)C=C2C=C[C@H](C)[C@H](CC[C@@H]3C[C@@H](O)CC(=O)O3)[C@H]21 [LOVASTATIN]	4.26		0					
Cc1ncc([N+](=O)[O-])n1CCO [METRONIDAZOLE]		≥ 80	0					
CC(C)(C)NCC(O)COc1cccc2c1CCC(=O)N2 (stereo not drawn) [CARTEOLOL]	-1.35	≥ 80	-0.89	9.2				
CC(C)N(CCC(C(N)=O)(c1ccccc1)c1ccccn1)C(C)C (stereo not drawn) [DISOPYRAMIDE]	-1.08		-0.9	10.4	≥ 80			
C[C@]12C=CC(=O)C=C1CC[C@@H]1[C@@H]2C(=O)C[C@@]2(C)[C@H]1CC[C@]2(O)C(=O)CO [PREDNISONE]		> 80				0		
CNC1(c2ccccc2Cl)CCCCC1=O (stereo not drawn) [KETAMINE]	1.14				≤ 20			
CCCNC(=O)NS(=O)(=O)c1ccc(Cl)cc1 [CHLORPROPAMIDE]	0.76	≥ 80	0.89	5				
C=CCc1ccccc1OCC(O)CNC(C)C (stereo not drawn) [ALPRENOLOL]	0.4	≤ 20	-0.89					

Compound	logD [1]	bioavailability ([2]; F) [%]	delta logD [3]	pKa [4]	bioavailability [2] [%]	delta logD [5]	logD ([6]; pH 6.5, logD)	logD ([6]; pH 6.5)
NNc1nncc2ccccc12 [HYDRALAZINE]	0.14	≤ 20	-0.61					
O=C1OC(c2ccc(O)cc2)(c2ccc(O)cc2)c2ccccc21 [PHENOLPHTHALEIN]	2.41	≤ 20	0					
CN1C(=O)CC(=O)N(c2ccccc2)c2cc(Cl)ccc21 [CLOBAZAM]	0.95		0		≥ 80			
COc1ccc2cc(CCC(C)=O)ccc2c1 [NABUMETONE]	2.83	≤ 20	0					
O=C(c1ccccc1)c1ccc2n1CCC2C(=O)O (stereo not drawn) [KETOROLAC]	-1.34	≥ 80	0.9					
O=C1Nc2ccc(Cl)cc2C(c2ccccc2Cl)=NC1O (stereo not drawn) [LORAZEPAM]			0		≥ 80			
Cc1c(OCC(F)(F)F)ccnc1C[S+]([O-])c1nc2ccccc2[nH]1 (stereo not drawn) [LANSOPRAZOLE]	1.73				≥ 80			
CCCCNC(=O)NS(=O)(=O)c1ccc(C)cc1 [TOLBUTAMIDE]		≥ 80		5.3				
CC(=O)[C@H]1CC[C@H]2[C@@H]3CCC4=CC(=O)CC[C@]4(C)[C@H]3CC[C@]12C [PROGESTERONE]					< 20	0		
C[C@]12CC[C@H]3[C@@H](CCC4=CC(=O)CC[C@@]43C)[C@@H]1CC[C@@H]2O [TESTOSTERONE]					< 20	0		
O=c1[nH]c2ccccc2n1C1CCN(CCCC(c2ccc(F)cc2)c2ccc(F)cc2)CC1 [PIMOZIDE]				7.3				5.42
O=c1ccc2ccccc2o1 [COUMARIN]		< 20						
COc1ccc(C(CN(C)C)C2(O)CCCCC2)cc1 (stereo not drawn) [VENLAFAXINE]	-2.29				≤ 20			
C1COC(NC(C2CC2)C2CC2)=N1 [RILMENIDINE]	-0.94	≥ 80	-0.9	9.3				
O=C(NCC1CCCCN1)c1cc(OCC(F)(F)F)ccc1OCC(F)(F)F (stereo not drawn) [FLECAINIDE]	0.24	≥ 80	-0.9					
CCCCNc1cc(C(=O)O)cc(S(N)(=O)=O)c1Oc1ccccc1 [BUMETANIDE]	-1.84	≥ 80	0.9					
CN(C)CCC(c1ccc(Cl)cc1)c1ccccn1 (stereo not drawn) [CHLORPHENIRAMINE]	0.69		-0.89					
COC(=O)Nc1nc2ccc(C(=O)c3ccccc3)cc2[nH]1 [MEBENDAZOLE]	2.83	≤ 20	0					
COc1ccc(Cl)cc1C(=O)NCCc1ccc(S(=O)(=O)NC(=O)NC2CCCCC2)cc1 [GLYBURIDE]	1.85	≥ 80	0.87	5.3				
O=[N+]([O-])C1O[C@H]2[C@H](OC[C@@H]2O)[C@@H]1O (stereo partly drawn)	-0.4	≥ 80	0					
NC(=O)N1c2ccccc2C=Cc2ccccc21 [CARBAMAZEPINE]		≥ 80	0					
CCC1(c2cccc(O)c2)CCCCN(C)C1 (stereo not drawn) [MEPTAZINOL]	0.71		-0.88	8.7	≤ 20			

Compound	logD [1]	bioavailability ([2]; F) [%]	delta logD [3]	pKa [4]	bioavailability [2] [%]	delta logD [5]	logD ([6]; pH 6.5, logD)	logD ([6]; pH 6.5)
CC1=NS(=O)(=O)c2cc(Cl)ccc2N1 [DIAZOXIDE]	1.2	≥ 80	0.03	8.5				
CC1CCCC(C)N1CCCC(O)(c1ccccc1)c1ccccn1 (stereo not drawn) [PIRMENOL]	-0.53	≥ 80	-0.9	10.2				
CCC1(CCC(C)C)C(=O)NC(=O)NC1=O [AMOBARBITAL]	2.05		0.13		≥ 80			
CCc1cccc2c3c([nH]c12)C(CC)(CC(=O)O)OCC3 (stereo not drawn) [ETODOLAC]		≥ 80		4.7				
COc1cc(Cc2cnc(N)nc2N)cc(OC)c1OC [TRIMETHOPRIM]		> 80						
CN1C(C(=O)Nc2ccccn2)=C(O)c2sccc2S1(=O)=O [TENOXICAM]	0.56	≥ 80	0.88	5.1				
COC(=O)C1=C(C)NC(C)=C(C(=O)OC)C1c1ccccc1[N+](=O)[O-] [NIFEDIPINE]					79			
N#Cc1ccccc1OCC(O)CNCCNC(=O)Cc1ccc(O)cc1 (stereo not drawn) [EPANOLOL]	-0.4	≤ 20	-0.77	7.8				
Sc1ncnc2nc[nH]c12 [MERCAPTOPURINE ANHYDROUS]	-1.12	≤ 20	-0.72	7.6				
CCO [ALCOHOL]		> 80						
CCCNC1CCc2nc(N)sc2C1 (stereo not drawn)	-2.9	≥ 80	-0.9	11				
Cc1[nH]c(=O)c(C#N)cc1-c1ccncc1 [MILRINONE]	0.68	≥ 80	-0.02	5.2				
CC(C)(C)NCC(O)c1cc(Cl)c(N)c(C(F)(F)F)c1 (stereo not drawn) [MABUTEROL]	-0.03		-0.9	9.7	≥ 80			
O=c1[nH]c2ccccc2n1CCCN1CCC(n2c(=O)[nH]c3cc(Cl)ccc32)CC1 [DOMPERIDONE]								2.83
CN(C)CCCN1c2ccccc2CCc2ccc(Cl)cc21 [CLOMIPRAMINE]	2.49							
Cc1cccc(C)c1NC(=O)C(C)N (stereo not drawn) [TOCAINIDE]	-0.56	≥ 80	-0.78					
Cc1ccc(C(=O)c2ccc(CC(=O)O)n2C)cc1 [TOLMETIN]	-0.21	≥ 80	0.9					
CC(C(=O)O)c1ccc(-c2ccccc2)c(F)c1 (stereo not drawn) [FLURBIPROFEN]	1.81		0.9	4.2	≥ 80			
O=C(NCCNCC(O)COc1ccc(O)cc1)N1CCOCC1 (stereo not drawn) [XAMOTEROL]	-0.8	≤ 20	-0.78	7.8				
CN(CCCN1c2ccccc2CCc2ccccc21)CC(=O)c1ccc(Cl)cc1 [LOFEPRAMINE]	4.58	≤ 20	-0.32	6.7				
NC(=O)CCCCc1ccccc1	0.13	≥ 80	0					
